Laboratory results: the supplement of paper PMC10307832

How the values were obtained:
Experiment in all cases: relative viability (nuclei count vs DMSO), 5 days (fraction); higher = more cells survive
GSK126 + Tozasertib = compound: CC[C@H](C)N1C=C(C2=C(C=C(C=C21)C3=CN=C(C=C3)N4CCNCC4)C(=O)NCC5=C(C=C(NC5=O)C)C)C [GSK126] + Cc1cc(Nc2cc(N3CCN(C)CC3)nc(Sc3ccc(NC(=O)C4CC4)cc3)n2)n[nH]1 [Tozasertib] (partner 0.1 µM)
Method in brief: (§1)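 Lung cancer cell lines in 1536-well plates were dosed by pin tool the day after seeding, either with one drug alone or with a fixed anchor-drug dose plus five library-drug doses (not always all listed) in √10 steps. After 5 days, cells were fixed and their nuclei stained in one step (final 0.05% Triton X-100, 1% formaldehyde, 1 ug/ml Hoechst), then counted on 4× images. Relative viability is the nuclei count in treated wells divided by that in vehicle wells. Values are medians of duplicate plates.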

MLN4924 + Navitoclax = compound: NS(=O)(=O)OC[C@@H]1C[C@@H](n2ccc3c(N[C@H]4CCc5ccccc54)ncnc32)C[C@@H]1O [MLN4924] + CC1(C)CCC(c2ccc(Cl)cc2)=C(CN2CCN(c3ccc(C(=O)NS(=O)(=O)c4ccc(N[C@H](CCN5CCOCC5)CSc5ccccc5)c(S(=O)(=O)C(F)(F)F)c4)cc3)CC2)C1 [Navitoclax] (partner 0.5 µM)
Method in brief: as §1

MLN4924 + Pemetrexed = compound: NS(=O)(=O)OC[C@@H]1C[C@@H](n2ccc3c(N[C@H]4CCc5ccccc54)ncnc32)C[C@@H]1O [MLN4924] + Nc1nc2[nH]cc(CCc3ccc(C(=O)N[C@@H](CCC(=O)O)C(=O)O)cc3)c2c(=O)[nH]1 [Pemetrexed] (partner 0.2 µM)
Method in brief: as §1

GSK126 + Bortezomib = compound: CC[C@H](C)N1C=C(C2=C(C=C(C=C21)C3=CN=C(C=C3)N4CCNCC4)C(=O)NCC5=C(C=C(NC5=O)C)C)C [GSK126] + CC(C)C[C@H](NC(=O)[C@H](Cc1ccccc1)NC(=O)c1cnccn1)B(O)O [Bortezomib] (partner 0.002 µM)
Method in brief: as §1

Cell Line	relative viability (GSK126 + Tozasertib; first compound 0.08 µM)	relative viability (GSK126 + Tozasertib; first compound 0.253 µM)	relative viability (GSK126 + Tozasertib; first compound 0.8 µM)	relative viability (GSK126 + Tozasertib; first compound 2.53 µM)	relative viability (GSK126 + Tozasertib; first compound 8 µM)	relative viability (MLN4924 + Navitoclax; first compound 0.04 µM)	relative viability (MLN4924 + Navitoclax; first compound 0.1265 µM)	relative viability (MLN4924 + Navitoclax; first compound 0.4 µM)	relative viability (MLN4924 + Navitoclax; first compound 1.265 µM)	relative viability (MLN4924 + Navitoclax; first compound 4 µM)	relative viability (MLN4924 + Pemetrexed; first compound 0.04 µM)	relative viability (MLN4924 + Pemetrexed; first compound 0.1265 µM)	relative viability (MLN4924 + Pemetrexed; first compound 0.4 µM)	relative viability (MLN4924 + Pemetrexed; first compound 1.265 µM)	relative viability (MLN4924 + Pemetrexed; first compound 4 µM)	relative viability (GSK126 + Bortezomib; first compound 0.08 µM)	relative viability (GSK126 + Bortezomib; first compound 0.253 µM)	relative viability (GSK126 + Bortezomib; first compound 0.8 µM)	relative viability (GSK126 + Bortezomib; first compound 2.53 µM)	relative viability (GSK126 + Bortezomib; first compound 8 µM)
NCI-H1793	0.324	0.331	0.422	0.475	0.363	0.386	0.458	0.412	0.276	0.283	0.892	0.698	0.914	0.433	0.303	–	–	–	–	–
HCC-44	0.942	0.877	0.88	0.983	0.897	0.689	0.4	0.265	0.197	0.196	0.653	0.62	0.484	0.455	0.443	0.857	0.972	0.876	0.77	0.871
NCI-H3122	0.423	0.393	0.367	0.33	0.344	0.929	0.448	0.262	0.171	0.164	0.202	0.219	0.17	0.155	0.138	1.01	1.04	0.994	1.01	1.07
COR-L23	0.206	0.228	0.208	0.168	0.175	0.948	0.885	0.568	0.275	0.113	0.193	0.199	0.168	0.163	0.132	1.08	0.979	0.942	1.01	0.992
201T	0.893	1.05	0.944	0.944	0.836	1.28	1.21	1.2	0.514	0.556	0.291	0.312	0.315	0.287	0.257	1.09	1.12	1.07	1.2	0.959
NCI-H23	0.374	0.374	0.354	0.624	0.266	0.759	0.69	0.281	0.218	0.148	0.74	0.842	0.421	0.256	0.213	1.13	0.96	0.922	1.02	0.95
LCLC-103H	0.699	0.473	0.435	0.512	0.446	–	–	–	–	–	0.477	0.504	0.285	0.315	0.329	1.23	0.995	0.984	1.13	1.03
NCI-H2087	0.23	0.222	0.214	0.202	0.258	0.923	0.682	0.379	0.177	0.132	0.639	0.71	0.562	0.118	0.0987	1.02	0.668	0.94	0.941	0.907
NCI-H1944	0.261	0.24	0.247	0.23	0.28	1.05	0.979	0.873	0.209	0.215	0.602	0.56	0.405	0.186	0.157	–	–	–	–	–
HARA	0.131	0.0947	0.0975	0.0847	0.106	0.847	0.601	0.379	0.105	0.115	0.215	0.164	0.14	0.0838	0.183	1.15	1.14	1.09	1.11	1.05
NCI-H2347	0.664	0.603	0.635	0.597	0.444	0.676	0.677	0.44	0.305	0.369	0.376	0.438	0.369	0.396	0.36	0.931	0.924	0.917	1.36	0.89
COR-L 105	0.355	0.31	0.402	0.312	0.264	0.725	0.511	0.326	0.231	0.281	0.901	0.914	0.557	0.305	0.363	1.03	0.718	0.773	0.786	0.748
A-427	0.227	0.245	0.189	0.226	0.162	0.468	0.321	0.273	0.221	0.227	0.611	0.466	0.333	0.247	0.273	1.06	0.977	1.02	0.989	0.973
HCC-15	0.374	0.329	0.43	0.204	0.158	0.526	0.3	0.185	0.0995	0.114	0.205	0.158	0.0806	0.0787	0.0939	1.04	1.1	0.974	0.957	0.975
NCI-H1623	0.453	0.487	0.419	0.416	0.353	–	–	–	–	–	–	–	–	–	–	–	–	–	–	–
NCI-H2342	0.538	0.471	0.613	0.507	0.597	–	–	–	–	–	0.796	0.787	0.815	0.714	0.559	–	–	–	–	–
ABC-1	0.159	0.135	0.217	0.167	0.17	–	–	–	–	–	–	–	–	–	–	0.319	0.35	0.336	0.309	0.268
NCI-H1299	–	–	–	–	–	1.1	0.886	0.472	0.249	0.247	–	–	–	–	–	1.03	1.01	0.999	0.969	1.06

Cell Line	relative viability (GSK126 + Tozasertib; first compound 0.08 µM)	relative viability (GSK126 + Tozasertib; first compound 0.253 µM)	relative viability (GSK126 + Tozasertib; first compound 0.8 µM)	relative viability (GSK126 + Tozasertib; first compound 2.53 µM)	relative viability (GSK126 + Tozasertib; first compound 8 µM)	relative viability (MLN4924 + Navitoclax; first compound 0.04 µM)	relative viability (MLN4924 + Navitoclax; first compound 0.1265 µM)	relative viability (MLN4924 + Navitoclax; first compound 0.4 µM)	relative viability (MLN4924 + Navitoclax; first compound 1.265 µM)	relative viability (MLN4924 + Navitoclax; first compound 4 µM)	relative viability (MLN4924 + Pemetrexed; first compound 0.04 µM)	relative viability (MLN4924 + Pemetrexed; first compound 0.1265 µM)	relative viability (MLN4924 + Pemetrexed; first compound 0.4 µM)	relative viability (MLN4924 + Pemetrexed; first compound 1.265 µM)	relative viability (MLN4924 + Pemetrexed; first compound 4 µM)	relative viability (GSK126 + Bortezomib; first compound 0.08 µM)	relative viability (GSK126 + Bortezomib; first compound 0.253 µM)	relative viability (GSK126 + Bortezomib; first compound 0.8 µM)	relative viability (GSK126 + Bortezomib; first compound 2.53 µM)	relative viability (GSK126 + Bortezomib; first compound 8 µM)
NCI-H1792	–	–	–	–	–	0.594	0.46	0.567	0.338	0.109	0.776	0.672	1.35	0.296	0.195	0.973	1.02	0.991	0.91	0.948
SK-MES-1	0.852	0.988	0.937	0.813	0.81	1.04	1.04	0.62	0.199	0.166	0.968	0.87	0.415	0.227	0.247	–	–	–	–	–
NCI-H1563	–	–	–	–	–	–	–	–	–	–	1.08	1.48	0.649	0.495	0.405	0.948	0.924	0.937	0.887	0.834
NCI-H2170	0.697	0.661	0.764	0.651	0.661	0.709	0.313	0.34	0.144	0.164	0.275	0.311	0.271	0.129	0.135	–	–	–	–	–
NCI-H650	0.783	0.744	0.702	0.691	0.717	–	–	–	–	–	0.921	0.471	0.213	0.15	0.165	0.812	0.814	0.762	0.804	0.727
NCI-H1648	0.386	–	0.478	0.518	0.321	–	–	–	–	–	0.748	0.76	0.559	0.321	0.359	–	–	–	–	–
LK-2	0.209	0.212	0.175	0.183	0.189	0.86	0.639	0.411	0.195	0.225	0.25	0.248	0.203	0.117	0.106	–	–	–	–	–
IA-LM	–	–	–	–	–	0.238	0.159	0.0746	0.0607	0.0616	–	–	–	–	–	0.98	0.789	0.847	0.796	0.788
NCI-H1395	0.787	0.763	0.831	0.683	0.669	0.981	1.19	0.651	0.407	0.375	0.847	0.773	0.678	0.349	0.305	–	–	–	–	–
NCI-H661	0.355	0.336	0.344	0.343	0.332	–	–	–	–	–	0.773	0.77	0.494	0.426	0.44	1	0.88	0.808	0.926	0.632
NCI-H727	0.633	0.648	0.586	0.676	0.438	0.303	0.255	0.269	0.231	0.19	–	–	–	–	–	1.02	0.78	0.899	0.854	0.88
NCI-H358	0.105	0.116	0.133	0.12	0.122	–	–	–	–	–	0.177	0.16	0.134	0.107	0.128	–	–	–	–	–
Calu-6	–	–	–	–	–	0.667	0.232	0.162	0.119	0.128	–	–	–	–	–	1.18	0.949	1.1	1.2	1.04
NCI-H1703	–	–	–	–	–	0.133	0.14	0.188	0.133	0.124	–	–	–	–	–	0.444	0.339	0.191	0.407	0.209
EBC-1	–	–	–	–	–	0.348	0.262	0.172	0.112	0.139	–	–	–	–	–	0.61	0.542	0.529	0.563	0.411
SW 900	0.577	0.534	0.635	0.632	0.51	–	–	–	–	–	–	0.397	0.261	0.194	0.168	–	–	–	–	–
NCI-H522	0.535	0.507	0.503	0.527	0.605	–	–	–	–	–	0.876	0.859	0.612	0.323	0.383	–	–	–	–	–
A549	–	–	–	–	–	1.02	0.991	0.197	0.04	0.0449	–	–	–	–	–	–	–	–	–	–
